PMC9781104 (Pharmaceutics, 2022)
Read-outs that look alike come from different tables or passages of the source.

Columns and labels:
[1] = Pharmacokinetic panel study in CYP2D6-genotyped healthy female volunteers (observed plasma AUClast/Cmax, DGI and DD(G)I with clarithromycin or paroxetine); format: in vivo, human; conditions: for order of AUClast across CYP2D6 phenotypes: DGI setting
Description: Clinical data from a recently performed pharmacokinetic panel study (EudraCT-Nr.: 2009-014531-20, ClinicalTrails.gov: NCT01289756) were used for PBPK model development. The study protocol, patient information sheet and consent form were approved by the Ethics Committee of the University of Tübingen and the German Federal Institute for Drugs and Medical Devices (BfArM). All study participants had signed an informed consent form.
The study was conducted in 20 healthy, Caucasian, premenopausal female volunteers that were genotyped for CYP2D6 polymorphisms and subsequently assigned to predicted phenotypes according to the respective CYP2D6 activity score (AS) as depicted in Table 1 [17, 18]. […] After a wash-out phase of at least three weeks, clomiphene was administered concomitantly with the strong CYP3A4 inhibitor clarithromycin [19]. Here, the participants received 500 mg clarithromycin twice daily for four days. On day 5, a single dose of clomiphene citrate was administered together with 500 mg clarithromycin. Finally, in the third period, all subjects received clomiphene citrate together with the strong CYP2D6 inhibitor paroxetine. Here, 40 mg paroxetine was administered once daily for two days. On day 3, participants received a single dose of clomiphene citrate concomitantly with 40 mg paroxetine (Figure 1).
For the evaluation of DGI and DD(G)I effects, the predicted AUClast and Cmax effect ratios were calculated according to Equations (4) and (5) and compared with the corresponding observed values. Here, model performance was assessed using the prediction acceptance limits proposed by Guest et al. with 1.25-fold variability. (4) AUClast, AS=i ratio=AUClast, effect, AS=i/AUClast, control (5) Cmax, AS=i ratio=Cmax, effect, AS=i/Cmax, control
For the calculation of DGI ratios, AUClast, effect, AS=i and Cmax, effect, AS=i represent the AUClast and Cmax for CYP2D6 AS = i, while AUClast, control and Cmax, control are the AUClast and Cmax values for the NM (AS = 2) population. For the calculation of DD(G)I ratios, AUClast, effect, AS=i and Cmax, effect, AS=i represent the AUClast and Cmax for the CYP2D6 AS = i in the DD(G)I scenario with clarithromycin or paroxetine, while AUClast, control and Cmax, control are the AUClast and Cmax values for the CYP2D6 AS = i without the concomitant use of perpetrator drugs.

CYP2D6 [2] = assay: In vitro scaling factors from CYP2D6 activity score-specific in vitro metabolite formation rates; format: in vitro ADME, human
Excerpt: Here, kcat, AS=i represents the catalytic rate constant for CYP2D6 AS = i, kcat, AS=2 is the catalytic rate constant for the NM population and IVSFi is the corresponding in vitro scaling factor (IVSF).
S2. Drug-Gene-Interaction (DGI) Modeling
S2.1. CYP2D6 in vitro Scaling Factors
The estimated CYP2D6 kcat values for the NM population were extrapolated to the intermediate metabolizers (IM) (AS=0.5, AS=0.75 and AS=1) and ultrarapid metabolizers (UM) populations according to Equation 1 in the main manuscript, using in vitro scaling factors (IVSFs). Determination of IVSFs were based on AS-specific in vitro metabolite formation rates relative to the corresponding formation rate in NM as a reference. The respective IVSFs for each CYP2D6-dependent pathway are depicted in Table S8. Measured in vitro data for (E)-4-OH-Clom and (E)-4-OH-DE-Clom AS-specific formation rates were available, while mean values were assumed for the remaining CYP2D6-dependent metabolic pathways.
Table S8. Employed in vitro scaling factors (IVSFs) for individual CYP2D6 activity scores. […]

estrogen receptor = conditions: read-out: half-maximal inhibitory concentration towards the estrogen receptor; cited from earlier work
CYP2D6 [3] = conditions: cited from earlier work; for Km: literature value adapted with fu,inc
CYP3A4 = test system: CYP3A4; set-up: method as in ref [17, 18] of supplement; conditions: ref [17, 18] of supplement, cited from earlier work; for Km: literature value adapted with fu,inc
[4] = cited from earlier work; for Solubility (pH 6.5): ref [30]; for Solubility (pH 6.5) / pKa (base), literature: [34]; for Solubility (pH 6.5) / pKa (base), literature / pKa (acid): [38] of supplement (ChemAxon Chemicalize); for pKa (base), literature: ref [23], [30]; for pKa (acid): ref [34]
[5] = set-up: method as in ref [35] of supplement; conditions: ref [35] of supplement; cited from earlier work
[6] = set-up: method as in PMID 22108178; conditions: healthy female volunteers; cited from earlier work
CYP2D6 [7] = assay: PBPK model: CYP2D6-mediated metabolism (Km, kcat, contribution); set-up: species or system human; conditions: Assumed equal to Km of CYP2D6-mediated hydroxylation of (E)-4-OH-Clom, adapted with fu,inc=0.243; read-out: CYP2D6 Km → undef., assumed
Excerpt: An additional biotransformation process via CYP2B6 to (E)-4-OH-Clom was implemented to cover the fraction of CYP2D6-independent metabolism observed in the PM population and in CYP2D6 DD(G)I scenarios.
(E)-4-OH-Clom is metabolized via CYP2D6 to (Z)-3,4-dihydroxyclomiphene (implemented as an undefined metabolite), via an unspecific hepatic clearance mechanism and via CYP3A4 to the second active metabolite (E)-4-OH-DE-Clom. (E)-4-OH-DE-Clom is also formed via CYP2D6 metabolism of (E)-DE-Clom, which in turn, represents the main route of elimination of (E)-DE-Clom. Furthermore, (E)-DE-Clom is metabolized to minor extents through CYP2D6 and CYP3A4 to (E)-N,N-didesethylclomiphene (implemented as an undefined metabolite). The metabolism of (E)-4-OH-DE-Clom has not been extensively investigated, yet. According to work by Kröner, (E)-4-OH-DE-Clom is presumably metabolized through a CYP-mediated pathway to (Z)-3,4-dihydroxydesethyl-clomiphene. […]
This was integrated by accounting for the 80:20 metabolic ratio of CYP3A4 to CYP2D6 reported by Mazzarino and coworkers. […] As previously described, the ratio of the corresponding measured in vitro metabolic enzyme activities was used dur-ing the parameter estimation step for optimization of kcat values (kcat, CYP3A4 = 0.13 * kcat, CYP2D6)

[8] = cited from earlier work
[9] = ref [19] ((E)-Clom, (E)-4-OH-Clom), [17, 18] ((E)-DE-Clom) of supplement, read-out: CYP2D6 Km → undef.

Structure (SMILES)	order of AUClast across CYP2D6 phenotypes [1]	observed AUClast effect ratio in clarithromycin DDGI scenario vs control ([1]; PM)	IVSF, CYP2D6-mediated pathway → undef. (CYP2D6 [2]; AS=0, mean value assumed)	IVSF, CYP2D6-mediated pathway → undef. (CYP2D6 [2]; AS=0.5, mean value assumed)	IVSF, CYP2D6-mediated pathway → undef. (CYP2D6 [2]; AS=0.75, mean value assumed)	IVSF, CYP2D6-mediated pathway → undef. (CYP2D6 [2]; AS=1, mean value assumed)	IVSF, CYP2D6-mediated pathway → undef. (CYP2D6 [2]; AS=2 (NM, reference))	IVSF, CYP2D6-mediated pathway → undef. (CYP2D6 [2]; AS=3, mean value assumed)	IC50 (estrogen receptor) [nM]	Km (CYP2D6 [3]; [9]) [µM]	Solubility (pH 6.5) [4] [mg/ml]	pKa (base), literature [4]	pKa (acid) [4]	maximum plasma concentration (Cmax) in CYP2D6 PM compared with NM [6]	further results
CCN(CC)CCOc1ccc(/C(=C(/Cl)c2ccccc2)c2ccc(O)cc2)cc1 [(E)-4-OH-Clom, (E)-4-hydroxyclomiphene]	AUCIM (AS = 0.5) > AUCNM > AUCUM > AUCPM	~ 1.3 fold	0	0.17	0.23	0.51	1	1.41	2.2	3.6	0.06	9.41	8.64	approximately ten-fold lower	Cmax change due to inhibition of CYP2D6 by paroxetine ([1]; all phenotypes except for PM): decreased; AUClast change during CYP3A4 inhibition ([1]; clarithromycin, all phenotypes): slight increase; Km (CYP3A4; read-out: CYP3A4 Km → (E)-4-OH-DE-Clom): 3.4 µM; fu (fraction unbound), literature [5]: 0.6%
CCNCCOc1ccc(/C(=C(/Cl)c2ccccc2)c2ccc(O)cc2)cc1 [(E)-4-OH-DE-Clom, (E)-4-hydroxy-N-desethylclomiphene]	AUCIM (AS = 0.5) > AUCNM > AUCUM > AUCPM	~ 0.6 fold	0	0.17	0.23	0.51	1	1.41	0.9	–	0.17	9.65	8.69	approximately ten-fold lower	observed DGI AUClast effect ratio ([1]; IM (AS = 1) vs NM): ~ 0.8; Km (CYP2D6 [7]): 8.86 µM; logP (lipophilicity), literature ([4]; ref [23, 25-27], [30, 31], [25, 34], [38] of supplement): 4.47
CCNCCOc1ccc(/C(=C(/Cl)c2ccccc2)c2ccccc2)cc1 [(E)-DE-Clom, (E)-N-desethylclomiphene]	–	–	0	0.17	0.23	0.51	1	1.41	–	0.97	0.46	9.59	–	–	AUClast reduction during concomitant clarithromycin ([1]; PM): ~ 34%; IVSF, CYP2D6-mediated pathway → (E)-4-OH-DE-Clom (CYP2D6 [2]; AS=0, relative to NM, from in vitro formation rates, supplement ref [17]): 0; IVSF, CYP2D6-mediated pathway → (E)-4-OH-DE-Clom (CYP2D6 [2]; AS=0.5, relative to NM, from in vitro formation rates, supplement ref [17]): 0.16; IVSF, CYP2D6-mediated pathway → (E)-4-OH-DE-Clom (CYP2D6 [2]; AS=0.75, relative to NM, from in vitro formation rates, supplement ref [17]): 0.19; IVSF, CYP2D6-mediated pathway → (E)-4-OH-DE-Clom (CYP2D6 [2]; AS=1, relative to NM, from in vitro formation rates, supplement ref [17]): 0.44; IVSF, CYP2D6-mediated pathway → (E)-4-OH-DE-Clom (CYP2D6 [2]; AS=2 (NM, reference)): 1; IVSF, CYP2D6-mediated pathway → (E)-4-OH-DE-Clom (CYP2D6 [2]; AS=3, relative to NM, from in vitro formation rates, supplement ref [17]): 1.30; CYP2D6 contribution to the formation of the desethyl metabolite (CYP2D6 [3]; as incorporated in the model): ~ 20%; Km (CYP2D6 [3]; ref [17, 18] of supplement, read-out: CYP2D6 Km → (E)-4-OH-DE-Clom): 0.49 µM; ratio kcat,CYP3A4 / kcat,CYP2D6 for metabolism to (E)-N,N-didesethylclomiphene (CYP3A4; from measured in vitro metabolic enzyme activities): 0.13; Km (CYP3A4; read-out: CYP3A4 Km → undef.): 0.97 µM
CCN(CC)CCOc1ccc(C(=C(Cl)c2ccccc2)c2ccccc2)cc1 [clomiphene, Clomiphene]	–	–	–	–	–	–	–	–	–	–	–	–	–	–	response to clomiphene therapy ([8]; CYP2D6 IM): all CYP2D6 intermediate metabolizers (IM) responded; non-responders to clomiphene therapy ([8]; CYP2D6 NM): 30%; women who do not respond during clomiphene therapy [8]: 8–54%
